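1) Cells in 96-well plates. 2) Compound, 48 h, 5 concentrations. 3) Linear interpolation between surrounding doses. 4) Unreached endpoint = highest concentration. GI50: concentration for 50% inhibition of growth.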 Activity calls are given as the source filed them. Rule as the data show it: active = GI50 up to about 1.1 µM and inactive = higher. Some results are limits rather than exact numbers.

What all share (assay): growth of human tumour cells (NCI), 48 h
Experiment [1] concerns ACHN.
The test system of experiment [2] is CAKI-1.
Experiment [3] deals with COLO 205.
Experiment [4] relates to HCT-116.
Experiment [5] relates to LOX IMVI.
In experiment [6] the test system is OVCAR-3.
The subject of experiment [7] is OVCAR-5.
In experiment [8] the test system is RPMI-8226.
Experiment [9] has as its system SF-295.
Experiment [10] has as its system SK-MEL-5.
The subject of experiment [11] is SN12C.
The test system of experiment [12] is SNB-19.
The test system of experiment [13] is SW-620.
The subject of experiment [14] is TK-10.
Experiment [15] deals with UACC-257.
In experiment [16] the test system is UO-31.
The subject of experiment [17] is IGROV-1.
The subject of experiment [18] is UACC-62.
The test system of experiment [19] is RXF 393.

In the case of `CC1=NN(C(=O)Cc2ccccc2)C(=O)/C1=C\c1ccco1`, the GI50 in [1], in [2], in experiment [3], in experiment [4], in [5] and in experiment [6] was > 100 µM (inactive) throughout. Also, the GI50 in [7], in experiment [8], in experiment [9], in experiment [10], in experiment [11] and in experiment [12] was > 100 µM (inactive) in each case. Further, the GI50 in [13], in [14], in [15] and in [16] was > 100 µM (inactive) each time.
`COc1ccc(C(=O)OCC2OC(n3cnc4c(=S)nc[nH]c43)C(OC(=O)c3ccc(OC)cc3)C2OC(=O)c2ccc(OC)cc2)cc1` (stereo unspecified): the GI50 is 76.9 µM (inactive) in experiment [1]; 48.6 µM (inactive) in experiment [2]; > 100 µM (inactive) in experiment [3]; 10.5 µM (inactive) in experiment [4]; 57 µM (inactive) in [17]; 5.06 µM (inactive) in experiment [6]. The GI50 in experiment [7] is 23.1 µM (inactive); in [8], 4.36 µM (inactive); in experiment [9], 33.1 µM (inactive); in [10], 69.2 µM (inactive); in experiment [12], > 100 µM (inactive); in [13] it was 46.9 µM (inactive). Moreover, the GI50 in [14] is 7.43 µM (inactive); in [15] it was 16.8 µM (inactive); in experiment [18] it was 13.3 µM (inactive); in experiment [16], 55.1 µM (inactive).
`OCC12C=CC(C1)c1ccccc12` (stereo unspecified): the GI50 in experiment [1], in experiment [2], in experiment [3], in [4], in experiment [17] and in experiment [5] was > 100 µM (inactive) each time. In addition, the GI50 in experiment [6], in experiment [7], in experiment [8], in experiment [9], in [10] and in experiment [11] was > 100 µM (inactive) in each case. In addition, the GI50 in experiment [12], in experiment [13], in [14], in [15], in experiment [18] and in [16] was > 100 µM (inactive) throughout.
On to `CO[C@@]12[C@H](COC(N)=O)C3=C(C(=O)C(C)=C(N)C3=O)N1C[C@@H]1N[C@@H]12` [MITOMYCIN], for which the GI50 in [3] is 1.02 µM (active); in experiment [4] it was 0.701 µM (active); in experiment [17] it was 2.9 µM (inactive); in experiment [6] it was 3.07 µM (inactive); in [7], 1.36 µM (inactive); in [8], 2.4 µM (inactive). The GI50 in experiment [19] is 2.01 µM (inactive); in experiment [13] it was 0.485 µM (active); in experiment [14], 4.86 µM (inactive); in experiment [15], 1.21 µM (inactive); in experiment [16], 1.87 µM (inactive).
As to `CCOC(=O)C(=O)Nc1cc(Cl)ccc1Cl`, the GI50 in experiment [1], in [2], in experiment [3], in experiment [4], in experiment [17] and in [6] was > 100 µM (inactive) throughout. The GI50 in experiment [7], in [8], in experiment [9], in experiment [10], in experiment [11] and in experiment [12] was > 100 µM (inactive) in each case. The GI50 in experiment [13], in experiment [14], in [15], in [18] and in [16] was > 100 µM (inactive) each time.
Regarding `CCCCCCCCCCCCCCCCCCC1=C(O)C(=O)C=C(OC)C1=O`, the GI50 in experiment [1] was 28.7 µM (inactive); in experiment [2] it was 39.5 µM (inactive); in experiment [3], 48.5 µM (inactive); in [4] it was 43.7 µM (inactive); in [17], 38.8 µM (inactive); in experiment [6], 41.8 µM (inactive). The GI50 was 39.5 µM (inactive) in experiment [7]; 43.6 µM (inactive) in [19]; 36.5 µM (inactive) in [9]; 40 µM (inactive) in experiment [10]; 45.4 µM (inactive) in [11]; 61.4 µM (inactive) in [12]. For the same compound, the GI50 was 51.4 µM (inactive) in [13]; 40.4 µM (inactive) in experiment [14]; 78.2 µM (inactive) in [15]; 27.8 µM (inactive) in experiment [18]; 85.5 µM (inactive) in experiment [16].
As for `N#CC1=C(N)n2c(s/c(=C\c3ccc(Cl)cc3)c2=O)=C(c2nc3ccccc3[nH]2)C1c1ccc(Cl)cc1` (stereo unspecified), the GI50 in experiment [1] is 2.29 µM (inactive); in [2], 2.98 µM (inactive); in experiment [3] it was 2.51 µM (inactive); in experiment [4] it was 1.82 µM (inactive); in [17], 2.28 µM (inactive); in experiment [5], 1.65 µM (inactive). In addition, the GI50 was 1.8 µM (inactive) in experiment [6]; 2.02 µM (inactive) in experiment [7]; 2.23 µM (inactive) in [8]; 3.02 µM (inactive) in experiment [10]; 2.19 µM (inactive) in experiment [11]; 3.28 µM (inactive) in experiment [12]. For the same compound, the GI50 in [13] is 1.37 µM (inactive); in experiment [14] it was 0.596 µM (active); in experiment [15], 2.48 µM (inactive); in experiment [18], 1.23 µM (inactive); in experiment [16] it was 4.45 µM (inactive).
Take `O=C1c2ccccc2C(=O)C1(O)c1c[nH]c2ccccc12`: the GI50 in [2], in [3], in experiment [4], in experiment [17], in experiment [5] and in [6] was > 100 µM (inactive) each time. Further, the GI50 in experiment [7], in [8], in experiment [9], in [12], in [13] and in experiment [14] was > 100 µM (inactive) each time. For the same compound, the GI50 in experiment [15], in experiment [18] and in experiment [16] was > 100 µM (inactive) each time.
For `COc1cc2c(cc1OC)C(=O)Cc1ccc3c(c1CNCC2)OCO3`, the GI50 in experiment [1], in experiment [2], in [3], in [4], in experiment [17] and in experiment [6] was > 100 µM (inactive) each time. The GI50 in experiment [7], in experiment [8], in [9], in experiment [10], in experiment [11] and in [12] was > 100 µM (inactive) each time. In addition, the GI50 in experiment [13], in experiment [14], in [15], in experiment [18] and in [16] was > 100 µM (inactive) throughout.
As for `COc1ccc(-c2ccc(CC(=O)O)cc2)cc1OC`, the GI50 in experiment [1], in experiment [2], in [3], in [4], in [6] and in experiment [7] was > 100 µM (inactive) each time. The GI50 in experiment [8], in experiment [9], in experiment [10], in experiment [11], in [12] and in experiment [13] was > 100 µM (inactive) each time. The GI50 in experiment [14], in experiment [15], in experiment [18] and in [16] was > 100 µM (inactive) throughout.
In the case of `C=CCCC(=O)CC(=O)OCc1ccccc1`, the GI50 in [1], in experiment [2], in experiment [3], in [4], in experiment [17] and in [5] was > 100 µM (inactive) throughout. Besides, the GI50 in experiment [6], in experiment [7], in experiment [8], in experiment [9], in [10] and in experiment [11] was > 100 µM (inactive) each time. Moreover, the GI50 in experiment [12], in experiment [13], in [14], in experiment [15], in experiment [18] and in experiment [16] was > 100 µM (inactive) in each case.
As for `O=C(O)CSc1ccc2nc3ccccc3c(O)c2c1`, the GI50 in experiment [1], in experiment [2], in experiment [3], in experiment [4], in experiment [17] and in experiment [5] was > 100 µM (inactive) in each case. In addition, the GI50 in experiment [6], in [7], in [8], in experiment [9], in [10] and in [11] was > 100 µM (inactive) each time. The GI50 in [12], in experiment [13], in [14], in experiment [15], in experiment [18] and in [16] was > 100 µM (inactive) each time.
